In this assay the target is Angiotensin-converting enzyme. The experiment in a line: Concentration required to inhibit the activity of Angiotensin I converting enzyme by 50%.

pIC50: −log10 of the molar value. Counter-ions that a name gives are not always drawn.

By pIC50 is commonly meant −log10 of the IC50, conventionally taken in molar units. `CC(=O)NC(Cc1ccccc1)C(=O)CCC(=O)N1CCC[C@H]1C(=O)O` (stereo not given in full) [1-(5-Acetylamino-4-oxo-6-phenyl-hexanoyl)-pyrrolidine-2-carboxylic acid] gave a pIC50 of 6.48.
As for `NC(Cc1ccccc1)C(=O)CCC(=O)N1CCC[C@H]1C(=O)O` (stereo not given in full) [1-(5-Amino-4-oxo-6-phenyl-hexanoyl)-pyrrolidine-2-carboxylic acid; hydrochloride], the figure is 4.60; as for `O=C(NC(Cc1ccccc1)=C(CCC(=O)N1CCC[C@H]1C(=O)O)NO)c1ccccc1` [1-(5-Benzoylamino-4-hydroxyimino-6-phenyl-hexanoyl)-pyrrolidine-2-carboxylic acid], 5.92; as for `NC(=O)[C@@H]1CCCN1C(=O)CCC(=O)C(Cc1ccccc1)NC(=O)c1ccccc1` (stereo not given in full) [1-(5-Benzoylamino-4-oxo-6-phenyl-hexanoyl)-pyrrolidine-2-carboxylic acid amide], 6.82.
As for `O=C(NC(Cc1cccnc1)C(=O)CCC(=O)N1CCC[C@H]1C(=O)OCc1ccccc1)c1ccccc1` (stereo not given in full) [1-(5-Benzoylamino-4-oxo-6-pyridin-3-yl-hexanoyl)-pyrrolidine-2-carboxylic acid benzyl ester], the figure is 7.82; as for `O=C(NC(Cc1cccnc1)C(=O)CCC(=O)N1CCC[C@H]1C(=O)O)c1ccccc1` (stereo not given in full) [1-(5-Benzoylamino-4-oxo-6-pyridin-3-yl-hexanoyl)-pyrrolidine-2-carboxylic acid], 8.24.
`CC(NC(=O)c1ccccc1)C(=O)CCC(=O)N1CCC[C@H]1C(=O)O` (stereo not given in full) [1-(5-Benzoylamino-4-oxo-hexanoyl)-pyrrolidine-2-carboxylic acid] gave a pIC50 of 6.52.
`O=C(NC(Cc1ccccc1)C(=O)CCC(=O)N1CCC[C@H]1C(=O)O)OCc1ccccc1` (stereo not given in full) [1-(5-Benzyloxycarbonylamino-4-oxo-6-phenyl-hexanoyl)-pyrrolidine-2-carboxylic acid] had a pIC50 of 6.62.
As for `O=C(NC(Cc1ccccc1)C(=O)CCCC(=O)N1CCC[C@H]1C(=O)O)c1ccccc1` (stereo not given in full) [1-(6-Benzoylamino-5-oxo-7-phenyl-heptanoyl)-pyrrolidine-2-carboxylic acid], the figure is 7.38; as for `Cc1ccccc1C(=O)NC(Cc1ccccc1)C(=O)CCC(=O)N1CCC[C@H]1C(=O)OCc1ccccc1` (stereo not given in full) [1-[5-(2-Methyl-benzoylamino)-4-oxo-6-phenyl-hexanoyl]-pyrrolidine-2-carboxylic acid benzyl ester], 5.80.
`Cc1ccccc1C(=O)NC(Cc1ccccc1)C(=O)CCC(=O)N1CCC[C@H]1C(=O)O` (stereo not given in full) [1-[5-(2-Methyl-benzoylamino)-4-oxo-6-phenyl-hexanoyl]-pyrrolidine-2-carboxylic acid] gave a pIC50 of 7.34.
The figure for `COc1ccc(CC(NC(=O)c2ccccc2)C(=O)CCC(=O)N2CCC[C@H]2C(=O)O)cc1OC` (stereo not given in full) [1-[5-Benzoylamino-6-(3,4-dimethoxy-phenyl)-4-oxo-hexanoyl]-pyrrolidine-2-carboxylic acid] is 8.85; for `O=C(NC(Cc1ccc(OCc2ccccc2)cc1)C(=O)CCC(=O)N1CCC[C@H]1C(=O)OCc1ccccc1)c1ccccc1` (stereo not given in full) [1-[5-Benzoylamino-6-(4-benzyloxy-phenyl)-4-oxo-hexanoyl]-pyrrolidine-2-carboxylic acid benzyl ester] it is 7.07.
Regarding `CC(C)(C)OC(=O)[C@@H]1CCCN1C(=O)CCC(=O)C(Cc1ccc(OCc2ccccc2)cc1)NC(=O)c1ccccc1` (stereo not given in full) [1-[5-Benzoylamino-6-(4-benzyloxy-phenyl)-4-oxo-hexanoyl]-pyrrolidine-2-carboxylic acid tert-butyl ester], the pIC50 was 5.07. Compared with the last compound, the pIC50 is 2.00 log units lower.
`O=C(NC(Cc1ccc(OCc2ccccc2)cc1)C(=O)CCC(=O)N1CCC[C@H]1C(=O)O)c1ccccc1` (stereo not given in full) [1-[5-Benzoylamino-6-(4-benzyloxy-phenyl)-4-oxo-hexanoyl]-pyrrolidine-2-carboxylic acid] had a pIC50 of 8.00.
As for `O=C(NC(Cc1ccc(O)cc1)C(=O)CCC(=O)N1CCC[C@H]1C(=O)O)c1ccccc1` (stereo not given in full) [1-[5-Benzoylamino-6-(4-hydroxy-phenyl)-4-oxo-hexanoyl]-pyrrolidine-2-carboxylic acid], the figure is 8.33.
The figure for `O=C(CCC(=O)N1CCC[C@H]1C(=O)O)C(Cc1ccccc1)NC(=O)C1CCCO1` (stereo not given in full) [1-{4-Oxo-6-phenyl-5-[(tetrahydro-furan-2-carbonyl)-amino]-hexanoyl}-pyrrolidine-2-carboxylic acid] is 7.70; for `O=C(NC(Cc1ccccc1)C(=O)CCC(=O)N1CCC[C@H]1C(=O)O)c1ccco1` (stereo not given in full) [1-{5-[(Furan-2-carbonyl)-amino]-4-oxo-6-phenyl-hexanoyl}-pyrrolidine-2-carboxylic acid] it is 8.85; for `O=C(CCC(=O)C(Cc1ccccc1)NC(=O)c1ccccc1)NC(Cc1ccccc1)C(=O)OCc1ccccc1` (stereo not given) [2-(5-Benzoylamino-4-oxo-6-phenyl-hexanoylamino)-3-phenyl-propionic acid benzyl ester] it is 6.74.
As for `O=C(CCC(=O)C(Cc1ccccc1)NC(=O)c1ccccc1)N[C@H](Cc1ccccc1)C(=O)O` (stereo not given in full) [2-(5-Benzoylamino-4-oxo-6-phenyl-hexanoylamino)-3-phenyl-propionic acid], the figure is 7.55.

(Values after BindingDB's records for doi:10.1021/jm00140a010 (1982).)
